Source: patent publication US20080193374A1, “Liposomes Enclosing a Radionuclide and a Cytotoxic Agent for Combination Therapy” (priority 2004, published 2008)

Key:
[1] = system: OHS osteosarcoma xenografts; test: Tissue distribution of 223Ra in Caelyx liposomes, nude mice with OHS osteosarcoma xenografts (Example 2); format: in vivo
Procedure: 10 nude mice were prepared with OHS osteosarcoma xenografts. Each mouse was trated subcutaneously with one dose of 375 kBq/kg of 223Ra encapsulated in Caelyx lipsomes as prepared in Example 1.
After 1 hour, one day and four days, three, three and four animals were sacrificed respectively and the tissue distribution of radioactive material was measured.
The distribution of radionuclide was also compared with a control in which the radium was administered as a salt in a solution of liposomes but not encapsulated thereby.

[2] = Main biodistribution and blood clearance study with four days pre-treatment; liposomal vs free 223Ra (Example 4); format: in vivo, Balb/C mice; details: i.v.
Procedure: In the main study, the mice were divided into four different groups. Each group consisted of 6-7 animals of both sexes. […] One mouse in each of groups two, three and four, were left untreated and were used to measure possible reuptake of the product from faeces or the bedding.
Blood was withdrawn, the mice were euthanised and the radioactivity measurements were performed in the same manner as in Example 3, 1 hour, 24 hours, 6 days and 14 days post injection for the respective groups of mice.
To study the difference between liposomally encapsulated and free ^223Ra, a group of mice was injected intravenously with dissolved ^223RaCl.

[Cl][223Ra][Cl] [free ^223Ra, ^223RaCl]
clearance from blood [1]: rapid clearance
half-life (T1/2) circulating in the blood [2]: less than 1 hours
